Measured values published in patent US20190364889A1, “Application of Enhancer in Shortening the Half Life of and/or Time for Complete Degradation of Pesticide Residue” (priority 2016, published 2019).

Conditions: in vivo

**Q.** For `CCOCN(C(=O)CCl)c1c(C)cccc1CC` [acetochlor], which complete degradation time is on record?
**A.** ~21 days
